Here are results for 35 molecules from the OPERA property sets (Mansouri et al. 2018).

Values after ≈ are worked out from the molar mass of the structure shown. Where a SMILES comes first, the peptide text is derived from it.

Conditions in the first data set: not given
With `O=C(Cc1ccccc1)c1ccc(O)cc1`, the solubility (usually the dissolved amount per volume that the medium holds) amounted to 31.6 mM (≈ 6700 µg/mL).
Same read-out and setting: the figure for `Cc1ccc(NO)cc1` is 162 mM (≈ 20000 µg/mL); for `CCOC(=O)N[C@@H](C=O)[C@@H](O)[C@H](O)[C@H](O)CO` it is 1300 mM (≈ 327000 µg/mL); for `CCCCOC(=O)CCC(=O)OCCCC` it is 0.999 mM (≈ 230 µg/mL).

The data set is the same for the next values; noted with them: 20 °C.
`Cc1cc(C)cc(OCC(=O)O)c1` registered a solubility of 4.44 mM (≈ 800 µg/mL).
Turning to `Nc1nc(N)nc(Cl)n1`, the solubility stood at 4.12 mM (≈ 600 µg/mL).
In turn, `O=c1[nH]c2cncnc2[nH]1` registered a solubility of 30.6 mM (≈ 4170 µg/mL).
In turn, `OCc1ccc(Cl)cc1` had a solubility of 17.5 mM (≈ 2500 µg/mL).
Molecule `COc1ccc(CO)cc1` returned a solubility of 14.5 mM (≈ 2000 µg/mL).
In turn, `O=C(O)c1cc(Cl)ccc1O` had a solubility of 57.9 mM (≈ 10000 µg/mL).
The same measure, in the same setting: then `S=c1nc[nH]c2nccnc12`, with 2.25 mM (≈ 370 µg/mL).

Staying with this data set, now noted: 21 °C.
Molecule `CC(=O)N[C@@H](Cc1c[nH]c2ccccc12)C(=O)O` (racemic) had a solubility of 4.87 mM (≈ 1200 µg/mL).

Staying with this data set, now noted: 22 °C.
The molecule `COCOC(=O)c1ccccc1O` displayed a solubility of 5.01 mM (≈ 913 µg/mL).
Same read-out and setting: then `O=S1(=O)NCc2ccccc21`, with 30.1 mM (≈ 5100 µg/mL).

Staying with this data set, now noted: 25 °C.
In the case of `CCN1CC(=O)N=C1N`, the solubility stood at 684 mM (≈ 87000 µg/mL).
On to `CC(=O)N[C@@H](C(=O)O)C(C)C` (racemic), for which the solubility turned out to be 354 mM (≈ 56400 µg/mL).
Molecule `ON=C1CCCCCC1=NO` came in with a solubility of 37.6 mM (≈ 5870 µg/mL).
Regarding `O=[N+]([O-])c1cc(CCO)ccc1O`, the solubility is 69.9 mM (≈ 12800 µg/mL).
Regarding `CCCCOP(=O)(O)OCCCC`, the solubility worked out at 81.8 mM (≈ 17200 µg/mL).
On the same count and under the same terms, then `CCNCNC(=O)c1ccccc1`, with 842 mM (≈ 150000 µg/mL); and `CCCC(=O)N(C)N=O`, with 29.2 mM (≈ 3800 µg/mL); and `Oc1c(Cl)cc(Cl)cc1Cc1ccccc1`, with 0.0229 mM (≈ 5.8 µg/mL).
As to `NC(=O)c1ccc(S(N)(=O)=O)cc1`, the solubility is 4.99 mM (≈ 1000 µg/mL).
In turn, `CC(C)C[C@H](N)C(=O)N[C@@H](CCC(=O)O)C(=O)O` (H-Leu-Glu-OH) showed a solubility of 127 mM (≈ 33000 µg/mL).
Molecule `O=C(O)COCC(=O)O` gave a solubility of 3110 mM (≈ 417000 µg/mL).
Turning to `O=C(O)c1ccc([N+](=O)[O-])c2cccnc12`, the solubility stood at 0.683 mM (≈ 149 µg/mL).
As to `COc1ccc(C(=O)CCC(=O)O)cc1`, the solubility was 86.5 mM (≈ 18000 µg/mL).
`N#CCCN(CCC#N)C(CC(=O)O)C(=O)O` (racemic) returned a solubility of 29.3 mM (≈ 7000 µg/mL).
With `O=C1OCc2ccc(I)cc21`, the solubility came out at 0.615 mM (≈ 160 µg/mL).
`CCC(C)[C@@H](NC(C)=O)C(=O)O` (mixture of isomers): the solubility is 177 mM.
Molecule `CCOc1ccc(N(C(C)=O)C(C)=O)cc1` came in with a solubility of 11.3 mM (≈ 2500 µg/mL).
Still for that read-out and setting: then `O=C(NNC(=O)c1ccccc1)c1ccccc1`, with 25.8 mM (≈ 6200 µg/mL); and `CCOc1nc(OCC)nc(OCC)n1`, with 32.8 mM (≈ 7000 µg/mL); and `CCOC(=S)SC(C)C(=O)O` (stereo not given), with 35.6 mM (≈ 6910 µg/mL).
`CC(C)CCCCCO` showed a solubility of 4.97 mM (≈ 647 µg/mL).
